Consider 31 compounds from patent US12473262B2, “Aryl hydrocarbon receptor activators” (Oregon State University, priority 2019, dated 2025).

Molecules are shown by their SMILES.

The target of the experiment is aryl hydrocarbon receptor (AhR) (Mus musculus (Mouse), UniProt P30561). Briefly: AhR ligand screening: AhRE-luciferase reporter in transfected Hepa1 cells. The experiment is classed as cell-based. The settings on record: for Fold @ 1 nM: fold change of luciferase expression at 1 nM test compound relative to vehicle (0.1% DMSO); for Fold @ 100 nM: fold change of luciferase expression at 100 nM test compound relative to vehicle (0.1% DMSO); for Fold @ 10 uM: fold change of luciferase expression at 10 uM test compound relative to vehicle (0.1% DMSO); for Fold relative to benchmark @ 100 nM: luciferase expression at 100 nM test compound relative to 100 nM benchmark compound 11-cl-BBQ. A digest of the protocol:
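Mouse Hepa1 cells transfected with an AhRE-luciferase reporter were plated at 1×10^4 cells/well, grown overnight, then exposed to compounds. Cell lysates were assayed for luciferase by luminometry, with results given as fold induction over 0.1% DMSO vehicle.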

Chain of aryl hydrocarbon receptor (AhR) (P30561 10-805): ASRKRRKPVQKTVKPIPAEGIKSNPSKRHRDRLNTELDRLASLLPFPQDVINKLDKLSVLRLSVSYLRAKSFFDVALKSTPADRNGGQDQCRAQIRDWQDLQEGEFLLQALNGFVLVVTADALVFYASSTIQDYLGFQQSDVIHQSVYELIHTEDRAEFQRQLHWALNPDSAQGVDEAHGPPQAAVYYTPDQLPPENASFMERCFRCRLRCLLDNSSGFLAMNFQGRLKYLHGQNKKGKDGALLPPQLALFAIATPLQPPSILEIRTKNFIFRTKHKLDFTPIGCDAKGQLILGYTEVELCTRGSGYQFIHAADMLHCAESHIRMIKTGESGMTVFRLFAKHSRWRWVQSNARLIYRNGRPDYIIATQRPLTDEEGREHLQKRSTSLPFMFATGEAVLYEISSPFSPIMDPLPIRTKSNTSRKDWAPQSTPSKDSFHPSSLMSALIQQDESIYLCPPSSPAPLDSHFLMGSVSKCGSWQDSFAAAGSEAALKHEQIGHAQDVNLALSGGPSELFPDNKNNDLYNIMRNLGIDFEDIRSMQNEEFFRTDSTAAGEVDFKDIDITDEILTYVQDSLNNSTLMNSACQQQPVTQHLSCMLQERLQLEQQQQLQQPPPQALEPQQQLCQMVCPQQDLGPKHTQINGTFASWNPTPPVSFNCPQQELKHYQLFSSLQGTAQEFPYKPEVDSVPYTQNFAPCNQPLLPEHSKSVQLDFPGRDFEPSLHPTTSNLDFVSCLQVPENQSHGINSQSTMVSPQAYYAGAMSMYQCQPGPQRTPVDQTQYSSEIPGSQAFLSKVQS
Chain of aryl hydrocarbon receptor (AhR) (P53762 whole entry partner): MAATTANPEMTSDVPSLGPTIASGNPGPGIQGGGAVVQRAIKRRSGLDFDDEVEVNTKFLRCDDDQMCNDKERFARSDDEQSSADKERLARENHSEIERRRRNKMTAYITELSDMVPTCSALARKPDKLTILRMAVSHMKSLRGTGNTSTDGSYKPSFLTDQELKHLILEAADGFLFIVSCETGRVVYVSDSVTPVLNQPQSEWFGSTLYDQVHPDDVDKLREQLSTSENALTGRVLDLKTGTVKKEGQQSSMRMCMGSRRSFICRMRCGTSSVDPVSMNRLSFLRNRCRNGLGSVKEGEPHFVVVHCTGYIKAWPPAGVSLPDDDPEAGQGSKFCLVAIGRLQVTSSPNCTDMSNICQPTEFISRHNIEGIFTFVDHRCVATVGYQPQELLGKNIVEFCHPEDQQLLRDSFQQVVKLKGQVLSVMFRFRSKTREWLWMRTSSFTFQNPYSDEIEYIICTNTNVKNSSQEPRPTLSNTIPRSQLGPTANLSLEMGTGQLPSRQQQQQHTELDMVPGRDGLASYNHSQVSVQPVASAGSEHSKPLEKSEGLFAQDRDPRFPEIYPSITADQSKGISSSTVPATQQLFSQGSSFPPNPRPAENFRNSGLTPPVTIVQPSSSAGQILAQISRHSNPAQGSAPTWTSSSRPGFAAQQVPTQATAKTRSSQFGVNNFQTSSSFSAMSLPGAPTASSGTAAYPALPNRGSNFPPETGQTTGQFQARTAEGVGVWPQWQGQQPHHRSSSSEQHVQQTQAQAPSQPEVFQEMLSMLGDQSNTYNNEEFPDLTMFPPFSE

As for `N#Cc1ccc(S(=O)(=O)n2c(-c3cccc4ccccc34)nc3ccc(C(=O)N4CCCCC4)cc32)cc1` [Compound 1337], the “Fold @ 1 nM” value is given as 1 fold, the “Fold @ 100 nM” value was determined as 1 fold, the “Fold @ 10 uM” value is reported as 8 fold and the “Fold relative to benchmark @ 100 nM” value is listed as 0.03 fold.

As for `COC(=O)c1ccc2c(c1)nc(-c1cccc3ccccc13)n2Cc1ccc(F)c(F)c1` [Compound 1338], the “Fold @ 1 nM” value is listed as 1 fold, the “Fold @ 100 nM” value worked out at 1 fold, the “Fold @ 10 uM” value is reported as 2 fold and the “Fold relative to benchmark @ 100 nM” value stood at 0.03 fold.

For `COC(=O)c1ccc2nc(-c3cccc4ccccc34)n(Cc3ccc(F)c(F)c3)c2c1` [Compound 1339], the “Fold @ 1 nM” value was found to be 1 fold, the “Fold @ 100 nM” value is 1 fold, the “Fold @ 10 uM” value is 4 fold and the “Fold relative to benchmark @ 100 nM” value came out at 0.03 fold.

Turning to `O=C(c1ccc2c(c1)nc(-c1cccc3ccccc13)n2S(=O)(=O)c1ccc2ccccc2c1)N1CCCCC1` [Compound 1340], the “Fold @ 1 nM” value is on record as 1 fold, the “Fold @ 100 nM” value came out at 1 fold, the “Fold @ 10 uM” value was found to be 8 fold and the “Fold relative to benchmark @ 100 nM” value amounted to 0.03 fold.

With `O=C(c1ccc2nc(-c3cccc4ccccc34)n(S(=O)(=O)c3ccc4ccccc4c3)c2c1)N1CCCCC1` [Compound 1341], the “Fold @ 1 nM” value was determined as 1 fold, the “Fold @ 100 nM” value is 1 fold, the “Fold @ 10 uM” value was 5 fold and the “Fold relative to benchmark @ 100 nM” value came to 0.03 fold.

Take `COC(=O)c1ccc2c(c1)nc(-c1cccc3ccccc13)n2C(=O)c1ccc(OC(F)(F)F)cc1` [Compound 1342]: the “Fold @ 1 nM” value is 1 fold, the “Fold @ 100 nM” value was determined as 2 fold, the “Fold @ 10 uM” value is 2 fold and the “Fold relative to benchmark @ 100 nM” value stood at 0.07 fold.

As to `O=C(c1ccc2c(c1)nc(-c1cccc3ccccc13)n2S(=O)(=O)c1cccc(F)c1)N1CCOCC1` [Compound 1356], the “Fold @ 1 nM” value amounted to 1 fold, the “Fold @ 100 nM” value turned out to be 1 fold, the “Fold @ 10 uM” value is on record as 1 fold and the “Fold relative to benchmark @ 100 nM” value was determined as 0.03 fold.

As to `O=C(c1ccc2nc(-c3cccc4ccccc34)n(S(=O)(=O)c3cccc(F)c3)c2c1)N1CCOCC1` [Compound 1357], the “Fold @ 1 nM” value was 1 fold, the “Fold @ 100 nM” value is on record as 1 fold, the “Fold @ 10 uM” value came to 1 fold and the “Fold relative to benchmark @ 100 nM” value was determined as 0.03 fold.

In the case of `O=C(c1ccc2nc(-c3cccc4ccccc34)n(S(=O)(=O)c3ccc(Cl)cc3)c2c1)N1CCOCC1` [Compound 1359], the “Fold @ 1 nM” value came to 1 fold, the “Fold @ 100 nM” value is reported as 1 fold, the “Fold @ 10 uM” value stood at 2 fold and the “Fold relative to benchmark @ 100 nM” value was 0.03 fold.

Take `COC(=O)c1ccc2[nH]c(-c3cccc4ccccc34)nc2c1` [Compound 1360]: the “Fold @ 1 nM” value worked out at 1 fold, the “Fold @ 100 nM” value is 2 fold, the “Fold @ 10 uM” value worked out at 18 fold and the “Fold relative to benchmark @ 100 nM” value was found to be 0.07 fold.

Turning to `COC(=O)c1ccc2c(c1)nc(-c1cccc3ccccc13)n2S(=O)(=O)c1ccc(C#N)cc1` [Compound 1361], the “Fold @ 1 nM” value was found to be 1 fold, the “Fold @ 100 nM” value was determined as 2 fold, the “Fold @ 10 uM” value came out at 2 fold and the “Fold relative to benchmark @ 100 nM” value is listed as 0.07 fold.

Turning to `COC(=O)c1ccc2nc(-c3cccc4ccccc34)n(S(=O)(=O)c3ccc(C#N)cc3)c2c1` [Compound 1362], the “Fold @ 1 nM” value is 5 fold, the “Fold @ 100 nM” value is listed as 3 fold, the “Fold @ 10 uM” value was found to be 18 fold and the “Fold relative to benchmark @ 100 nM” value is on record as 0.1 fold.

As to `O=C(c1ccc2c(c1)nc(-c1cccc3ccccc13)n2S(=O)(=O)c1ccc2ccccc2c1)N1CCOCC1` [Compound 1363], the “Fold @ 1 nM” value is 1 fold, the “Fold @ 100 nM” value is reported as 1 fold, the “Fold @ 10 uM” value was determined as 4 fold and the “Fold relative to benchmark @ 100 nM” value is listed as 0.03 fold.

For `CN1CCN(C(=O)c2ccc3c(c2)nc(-c2cccc4ccccc24)n3Cc2ccc(F)c(F)c2)CC1` [Compound 1364], the “Fold @ 1 nM” value is given as 1 fold, the “Fold @ 100 nM” value came to 1 fold, the “Fold @ 10 uM” value stood at 3 fold and the “Fold relative to benchmark @ 100 nM” value is listed as 0.03 fold.

On to `CN1CCN(C(=O)c2ccc3nc(-c4cccc5ccccc45)n(Cc4ccc(F)c(F)c4)c3c2)CC1` [Compound 1365], for which the “Fold @ 1 nM” value came to 1 fold, the “Fold @ 100 nM” value was 1 fold, the “Fold @ 10 uM” value is 2 fold and the “Fold relative to benchmark @ 100 nM” value is on record as 0.03 fold.

For the compound `O=C(c1ccc2c(c1)nc(-c1cccc3ccccc13)n2S(=O)(=O)c1ccc(Cl)cc1)N1CCCCC1` [Compound 1366], the “Fold @ 1 nM” value amounted to 1 fold, the “Fold @ 100 nM” value amounted to 1 fold, the “Fold @ 10 uM” value was determined as 10 fold and the “Fold relative to benchmark @ 100 nM” value came out at 0.03 fold.

For `O=C(c1ccc2nc(-c3cccc4ccccc34)n(S(=O)(=O)c3ccc(Cl)cc3)c2c1)N1CCCCC1` [Compound 1367], the “Fold @ 1 nM” value came out at 1 fold, the “Fold @ 100 nM” value came out at 1 fold, the “Fold @ 10 uM” value was 3 fold and the “Fold relative to benchmark @ 100 nM” value is given as 0.03 fold.

With `O=C(c1ccc2c(c1)nc(-c1cccc3ccccc13)n2S(=O)(=O)c1cccc(F)c1)N1CCCCC1` [Compound 1368], the “Fold @ 1 nM” value is reported as 1 fold, the “Fold @ 100 nM” value is 2 fold, the “Fold @ 10 uM” value stood at 2 fold and the “Fold relative to benchmark @ 100 nM” value is 0.07 fold.

On to `O=C(c1ccc2nc(-c3cccc4ccccc34)n(S(=O)(=O)c3cccc(F)c3)c2c1)N1CCCCC1` [Compound 1369], for which the “Fold @ 1 nM” value was 1 fold, the “Fold @ 100 nM” value came out at 1 fold, the “Fold @ 10 uM” value is recorded as 2 fold and the “Fold relative to benchmark @ 100 nM” value is recorded as 0.03 fold.

Regarding `O=C(c1ccc2nc(-c3cccc4ccccc34)n(S(=O)(=O)c3ccc(C(F)(F)F)cc3)c2c1)N1CCOCC1` [Compound 1370], the “Fold @ 1 nM” value came to 1 fold, the “Fold @ 100 nM” value stood at 1 fold, the “Fold @ 10 uM” value is 4 fold and the “Fold relative to benchmark @ 100 nM” value is 0.03 fold.

With `COC(=O)c1ccc2nc(-c3cccc4ccccc34)n(S(=O)(=O)c3ccc4ccccc4c3)c2c1` [Compound 1384], the “Fold @ 1 nM” value was found to be 1 fold, the “Fold @ 100 nM” value is 2 fold, the “Fold @ 10 uM” value is given as 13 fold and the “Fold relative to benchmark @ 100 nM” value is reported as 0.07 fold.

With `COC(=O)c1ccc2c(c1)nc(-c1cccc3ccccc13)n2S(=O)(=O)c1ccc(Cl)cc1` [Compound 1385], the “Fold @ 1 nM” value was determined as 1 fold, the “Fold @ 100 nM” value turned out to be 2 fold, the “Fold @ 10 uM” value is listed as 5 fold and the “Fold relative to benchmark @ 100 nM” value was 0.07 fold.

For the compound `COC(=O)c1ccc2nc(-c3cccc4ccccc34)n(S(=O)(=O)c3ccc(Cl)cc3)c2c1` [Compound 1386], the “Fold @ 1 nM” value is reported as 1 fold, the “Fold @ 100 nM” value was found to be 2 fold, the “Fold @ 10 uM” value worked out at 6 fold and the “Fold relative to benchmark @ 100 nM” value is 0.07 fold.

As to `O=C(c1ccc2nc(-c3cccc4ccccc34)n(S(=O)(=O)c3ccc4ccccc4c3)c2c1)N1CCOCC1` [Compound 1389], the “Fold @ 1 nM” value turned out to be 1 fold, the “Fold @ 100 nM” value came to 1 fold, the “Fold @ 10 uM” value came to 3 fold and the “Fold relative to benchmark @ 100 nM” value is 0.03 fold.

Turning to `COc1ccccc1S(=O)(=O)n1c(-c2cccc3ccccc23)nc2cc(C(=O)N3CCCCC3)ccc21` [Compound 1390], the “Fold @ 1 nM” value is 1 fold, the “Fold @ 100 nM” value turned out to be 1 fold, the “Fold @ 10 uM” value was 3 fold and the “Fold relative to benchmark @ 100 nM” value is 0.03 fold.

In the case of `COc1ccccc1S(=O)(=O)n1c(-c2cccc3ccccc23)nc2ccc(C(=O)N3CCCCC3)cc21` [Compound 1391], the “Fold @ 1 nM” value is listed as 1 fold, the “Fold @ 100 nM” value is 1 fold, the “Fold @ 10 uM” value is on record as 1 fold and the “Fold relative to benchmark @ 100 nM” value was determined as 0.03 fold.

For `CN1CCN(C(=O)c2ccc3c(c2)nc(-c2cccc4ccccc24)n3S(=O)(=O)c2cccc(F)c2)CC1` [Compound 1392], the “Fold @ 1 nM” value is on record as 1 fold, the “Fold @ 100 nM” value was 1 fold, the “Fold @ 10 uM” value turned out to be 4 fold and the “Fold relative to benchmark @ 100 nM” value was determined as 0.03 fold.

Regarding `CN1CCN(C(=O)c2ccc3nc(-c4cccc5ccccc45)n(S(=O)(=O)c4cccc(F)c4)c3c2)CC1` [Compound 1393], the “Fold @ 1 nM” value came to 1 fold, the “Fold @ 100 nM” value was 1 fold, the “Fold @ 10 uM” value was 4 fold and the “Fold relative to benchmark @ 100 nM” value worked out at 0.03 fold.

On to `COC(=O)c1ccc2c(c1)nc(-c1cccc3ccccc13)n2S(=O)(=O)c1ccc(C(F)(F)F)cc1` [Compound 1401], for which the “Fold @ 1 nM” value is on record as 1 fold, the “Fold @ 100 nM” value was found to be 1 fold, the “Fold @ 10 uM” value is on record as 2 fold and the “Fold relative to benchmark @ 100 nM” value worked out at 0.03 fold.

As for `COC(=O)c1ccc2nc(-c3cccc4ccccc34)n(S(=O)(=O)c3ccc(C(F)(F)F)cc3)c2c1` [Compound 1402], the “Fold @ 1 nM” value is 1 fold, the “Fold @ 100 nM” value was found to be 2 fold, the “Fold @ 10 uM” value turned out to be 3 fold and the “Fold relative to benchmark @ 100 nM” value was 0.07 fold.

For the compound `O=C(c1ccc2c(c1)nc(-c1cccc3ccccc13)n2Cc1ccc(F)cc1)N1CCOCC1` [Compound 1403], the “Fold @ 1 nM” value was determined as 1 fold, the “Fold @ 100 nM” value turned out to be 2 fold, the “Fold @ 10 uM” value turned out to be 20 fold and the “Fold relative to benchmark @ 100 nM” value turned out to be 0.07 fold.
